US12421205B2, “GLP-1 receptor agonist” (HYUNDAI PHARM CO., LTD., priority 2019, dated 2025)

Tests used:
[1] = biological target: T1, human GLP-1 receptor (Homo sapiens, UniProt P43220); experiment: cAMP activity test (cAMP dynamic HTRF kit) in CHO-K1/GLP-1 receptor-expressing cells; format: cell-based; details: cAMP activity, CHO-K1/GLP-1 receptor-expressing cells; read-out: EC50
T1 construct: host or cells: CHO-K1
Experimental: The next day, the medium was removed, and a 50 uL of HBSS medium containing 0.1% BSA, 0.5 mM IBMX, and 5 mM HEPES was added to each well. […] The cAMP activity was measured according to the manufacturer's instructions using the cAMP dynamic HTRF kit (Cisbio, 62AM4PEC). After incubation, the medium was discarded, and the cells were lysed. cAMP-d2 and anti-cAMP cryptate conjugate were added thereto and reacted for 3 hours. […] Intracellular cAMP competes with cAMP-d2 for anti-cAMP cryptate, and the measured signal of fluorescence resonance energy transfer (FRET) is inversely proportional to intracellular cAMP.

[2] = biological target: T2, hERG (Homo sapiens, UniProt Q12809); experiment: hERG inhibition test (Predictor hERG Fluorescence Polarization assay kit); format: binding; details: probe kit Tracer (fluorescent hERG ligand), hERG % inhibition at 10 uM, relative to E-4031 and solvent control
T2 construct: purchased Invitrogen PV5365
T2 sequence (Q12809 whole entry): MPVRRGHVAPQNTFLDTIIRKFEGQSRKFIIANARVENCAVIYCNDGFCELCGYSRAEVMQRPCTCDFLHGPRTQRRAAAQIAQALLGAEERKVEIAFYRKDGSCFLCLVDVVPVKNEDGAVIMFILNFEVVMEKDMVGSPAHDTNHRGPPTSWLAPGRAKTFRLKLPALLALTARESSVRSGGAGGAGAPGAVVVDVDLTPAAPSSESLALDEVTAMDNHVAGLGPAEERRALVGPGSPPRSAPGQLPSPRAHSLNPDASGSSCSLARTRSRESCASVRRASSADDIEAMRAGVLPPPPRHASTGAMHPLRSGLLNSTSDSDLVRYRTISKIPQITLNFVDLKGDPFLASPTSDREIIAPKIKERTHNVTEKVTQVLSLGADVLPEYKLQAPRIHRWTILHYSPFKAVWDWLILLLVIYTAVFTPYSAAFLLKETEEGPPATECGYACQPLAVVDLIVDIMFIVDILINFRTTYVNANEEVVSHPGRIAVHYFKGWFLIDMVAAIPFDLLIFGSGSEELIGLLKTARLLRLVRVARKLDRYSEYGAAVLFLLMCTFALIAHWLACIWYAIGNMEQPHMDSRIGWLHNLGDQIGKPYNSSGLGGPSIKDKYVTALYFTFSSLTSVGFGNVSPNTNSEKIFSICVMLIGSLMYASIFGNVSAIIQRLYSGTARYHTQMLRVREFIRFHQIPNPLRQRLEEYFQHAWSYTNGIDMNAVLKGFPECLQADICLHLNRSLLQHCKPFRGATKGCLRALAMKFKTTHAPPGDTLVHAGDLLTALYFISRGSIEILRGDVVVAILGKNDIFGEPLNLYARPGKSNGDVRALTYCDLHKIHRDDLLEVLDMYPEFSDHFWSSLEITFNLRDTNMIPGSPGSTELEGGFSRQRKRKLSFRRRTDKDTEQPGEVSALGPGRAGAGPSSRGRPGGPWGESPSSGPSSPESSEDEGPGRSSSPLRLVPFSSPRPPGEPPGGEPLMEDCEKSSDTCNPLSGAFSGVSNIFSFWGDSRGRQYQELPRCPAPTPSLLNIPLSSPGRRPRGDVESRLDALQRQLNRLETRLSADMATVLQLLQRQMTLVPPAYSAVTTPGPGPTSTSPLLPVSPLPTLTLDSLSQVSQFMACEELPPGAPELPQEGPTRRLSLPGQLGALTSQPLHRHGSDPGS
Experimental: To measure the hERG (Human ether-a-go-go-related gene) channel inhibition rate of the compound according to the present invention, the following test was performed using a Predictor hERG Fluorescence Polarization assay kit (Invitrogen, PV5365).
Specifically, a test substance was dissolved in DMSO to prepare a 50 mM solution. A 4 mM solution was prepared by diluting the 50 mM solution with DMSO in a U bottom 96-well plate (SPL, 34096), and was then diluted 100-fold with a test buffer to prepare a 40 uM (4×) solution. The positive control E-4031 (3 mM) provided in the kit was diluted 25-fold with a test buffer to prepare a 120 uM solution) 5 uL of the diluted test substance solution was dispensed into a 384-well assay plate (corning, 3677). hERG Membrane (2×) and Tracer (4×) provided in the kit were respectively added at 10 uL and 5 uL, and then subjected to the reaction at room temperature for 2.5 hours. After completion of the reaction, fluorescence polarization (mP) was measured with a Multimode Plate Reader (Perkin-Elmer, Envision) (excitation wavelength of 531 nm, and emission wavelength 579 nm). The value of the percent inhibitory activity (% inhibition) at 10 uM of each test substance was calculated by the following equation, and the results are shown in Table 2: (% inhibition)=100−{(mP of the compound according to the present invention−E-4031 mP)/(mP of the solvent control−E-4031 mP)}×100

T1 sequence (P43220 24-463): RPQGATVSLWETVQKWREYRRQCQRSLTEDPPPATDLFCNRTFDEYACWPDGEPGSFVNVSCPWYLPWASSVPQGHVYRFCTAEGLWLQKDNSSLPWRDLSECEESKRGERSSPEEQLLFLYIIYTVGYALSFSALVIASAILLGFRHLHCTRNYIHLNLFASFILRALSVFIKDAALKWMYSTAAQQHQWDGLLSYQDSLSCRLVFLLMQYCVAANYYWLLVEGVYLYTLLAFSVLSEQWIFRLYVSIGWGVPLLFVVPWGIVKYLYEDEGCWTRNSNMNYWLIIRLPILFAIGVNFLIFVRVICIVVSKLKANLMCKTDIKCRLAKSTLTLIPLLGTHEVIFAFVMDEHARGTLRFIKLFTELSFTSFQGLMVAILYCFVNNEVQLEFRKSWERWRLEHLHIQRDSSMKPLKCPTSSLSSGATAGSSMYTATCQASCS

| EC50 [1] | Structure (SMILES) | inhibition at 2.5 h, 10 µM [2] |
| --- | --- | --- |
| 0.005 µM | O=C(O)c1ccc2nc(Cc3c(F)cc(-c4cccc(OCc5ccc(Cl)cc5F)n4)cc3F)n(CC3CCCO3)c2c1 (stereo not shown) [Example 65, 2-(4-(6-(4-chloro-2-fluorobenzyloxy)pyridin-2-yl)-2,6-difluorobenzyl)-1-((tetrahydrofuran-2-yl)methyl)-1H-benzo[d]imidazole-6-carboxylic acid] | 10.8% |
| 0.035 µM | O=C(O)c1ccc2nc(Cc3ccc(-c4cccc(OCc5ccc(Cl)cc5F)n4)cc3F)n(Cc3ccco3)c2c1 [Example 13, 2-(4-(6-(4-chloro-2-fluorobenzyloxy)pyridin-2-yl)-2-fluorobenzyl)-1-(furan-2-ylmethyl)-1H-benzo[d]imidazole-6-carboxylic acid] | -7.76% |
| < 0.0032 µM | N#Cc1ccc(COc2cccc(-c3cc(F)c(Cc4nc5ccc(C(=O)O)cc5n4C[C@@H]4CCO4)cc3F)n2)c(F)c1 [Example 115, (S)-2-(4-(6-((4-cyano-2-fluorobenzyl)oxy)pyridin-2-yl)-2,5-difluorobenzyl)-1-(oxetan-2-ylmethyl)-1H-benzo[d]imidazole-6-carboxylic acid] | -2.45% |
| 0.11 µM | N#Cc1ccc(COc2cccc(-c3ccc(Cc4nc5ccc(C(=O)O)cc5n4Cc4ccco4)cc3)n2)c(F)c1 [Example 18, 2-(4-(6-(4-cyano-2-fluorobenzyloxy)pyridin-2-yl)benzyl)-1-(furan-2-ylmethyl)-1H-benzo[d]imidazole-6-carboxylic acid] | 7.37% |
| < 0.0032 µM | N#Cc1ccc(COc2cccc(-c3cc(F)c(Cc4nc5ccc(C(=O)O)cc5n4C[C@@H]4CCO4)c(F)c3)n2)c(F)c1 [Example 103, (S)-2-(4-(6-(4-cyano-2-fluorobenzyloxy)pyridin-2-yl)-2,6-difluorobenzyl)-1-(oxetan-2-ylmethyl)-1H-benzo[d]imidazole-6-carboxylic acid] | 5.66% |
| 0.16 µM | COc1cc(-c2cccc(OCc3ccc(Cl)cc3F)n2)ccc1Cc1nc2ccc(C(=O)O)cc2n1CC1CCCO1 (stereo not shown) [Example 63, 2-(4-(6-(4-chloro-2-fluorobenzyloxy)pyridin-2-yl)-2-methoxybenzyl)-1-((tetrahydrofuran-2-yl)methyl)-1H-benzo[d]imidazole-6-carboxylic acid] | -19.6% |
| 0.02 µM | O=C(O)c1ccc2nc(Cn3ccc(-c4cccc(OCc5ccc(Cl)cc5F)n4)cc3=O)n(CC3CCO3)c2c1 (stereo not shown) [Example 127, 2-((6-((4-chloro-2-fluorobenzyl)oxy)-2′-oxo-[2,4′-bipyridin]-1′(2′H)-yl)methyl)-1-(oxetan-2-ylmethyl)-1H-benzo[d]imidazole-6-carboxylic acid] | 2.3% |
| 0.11 µM | O=C(O)c1ccc2nc(Cn3ccc(-c4cccc(OCc5ccc(Cl)cc5F)c4)cc3=O)n(CC3CCCO3)c2c1 (stereo not shown) [Example 106, 2-((4-(3-(4-chloro-2-fluorobenzyloxy)phenyl)-2-oxopyridin-1(2H)-yl)methyl)-1-((tetrahydrofuran-2-yl)methyl)-1H-benzo[d]imidazole-6-carboxylic acid] | -2.71% |
| 0.021 µM | N#Cc1ccc(COc2cccc(-c3ccc(Cc4nc5ccc(C(=O)O)cc5n4CC4CCCO4)cc3F)n2)c(F)c1 (stereo not shown) [Example 130, 2-(4-(6-((4-cyano-2-fluorobenzyl)oxy)pyridin-2-yl)-3-fluorobenzyl)-1-((tetrahydrofuran-2-yl)methyl)-1H-benzo[d]imidazole-6-carboxylic acid] | -6.76% |
| 3.7 µM | O=C(O)c1ccc2nc(Cc3ccc(-c4cccc(COc5ccc(Cl)cc5F)n4)cc3F)n(C[C@H]3CCCO3)c2c1 [Example 45, (R)-2-(4-(6-((4-chloro-2-fluorophenoxy)methyl)pyridin-2-yl)-2-fluorobenzyl)-1-((tetrahydrofuran-2-yl)methyl)-1H-benzo[d]imidazole-6-carboxylic acid] | 27.7% |
| 0.0043 µM | O=C(O)c1ccc2nc(Cc3ccc(-c4cccc(OCc5ccc([N+](=O)[O-])cc5)n4)c(F)c3)n(C[C@@H]3CCO3)c2c1 [Example 124, (S)-2-(3-fluoro-4-(6-((4-nitrobenzyl)oxy)pyridin-2-yl)benzyl)-1-(oxetan-2-ylmethyl)-1H-benzo[d]imidazole-6-carboxylic acid] | 7.28% |
| 0.8 µM | O=C(O)c1ccc2nc(Cc3ccc(-c4cccc(OCc5ccc(Cl)cc5F)c4)cc3F)n(CCF)c2c1 [Example 56, 2-((3′-(4-chloro-2-fluorobenzyloxy)-3-fluorobiphenyl-4-yl)methyl)-1-(2-fluoroethyl)-1H-benzo[d]imidazole-6-carboxylic acid] | 0.83% |
| 0.85 µM | N#Cc1ccc(COc2cccc(-c3ccc(Cc4nc5ccc(C(=O)O)cc5n4CCF)c(F)c3)c2)c(F)c1 [Example 57, 2-((3′-(4-cyano-2-fluorobenzyloxy)-3-fluorobiphenyl-4-yl)methyl)-1-(2-fluoroethyl)-1H-benzo[d]imidazole-6-carboxylic acid] | 6.42% |
| 0.21 µM | O=C(O)c1ccc2nc(Cc3ccc(-c4cccc(OCc5ccc(Cl)cc5F)n4)c(F)c3)n(CCF)c2c1 [Example 55, 2-(4-(6-(4-chloro-2-fluorobenzyloxy)pyridin-2-yl)-3-fluorobenzyl)-1-(2-fluoroethyl)-1H-benzo[d]imidazole-6-carboxylic acid] | 35.4% |
| 0.19 µM | Cc1cc(-c2cccc(OCc3ccc(Cl)cc3F)n2)ccc1Cc1nc2ccc(C(=O)O)cc2n1C[C@@H]1CCO1 [Example 134, (S)-2-(4-(6-((4-chloro-2-fluorobenzyl)oxy)pyridin-2-yl)-2-methylbenzyl)-1-(oxetan-2-ylmethyl)-1H-benzo[d]imidazole-6-carboxylic acid] | 28.3% |
| 1.3 µM | N#Cc1ccc(COc2cccc(-c3ccc(Cc4nc5ccc(C(=O)O)cc5n4C[C@H]4CCCO4)cc3F)c2)c(F)c1 [Example 47, (R)-2-((3′-(4-cyano-2-fluorobenzyloxy)-2-fluorobiphenyl-4-yl)methyl)-1-((tetrahydrofuran-2-yl)methyl)-1H-benzo[d]imidazole-6-carboxylic acid] | -17.1% |
| 0.015 µM | O=C(O)c1ccc2nc(Cc3ccc(-c4cccc(OCc5ccc(Cl)cc5F)n4)c(F)c3)n(Cc3cccs3)c2c1 [Example 50, 2-(4-(6-(4-chloro-2-fluorobenzyloxy)pyridin-2-yl)-3-fluorobenzyl)-1-(thiophen-2-ylmethyl)-1H-benzo[d]imidazole-6-carboxylic acid] | 4.72% |
| 0.0082 µM | O=C(O)c1ccc2nc(Cc3ccc(-c4cccc(OCc5ccc(Cl)cc5F)n4)cc3F)n(CC3CCCO3)c2c1 (stereo not shown) [Example 17, 2-(4-(6-(4-chloro-2-fluorobenzyloxy)pyridin-2-yl)-2-fluorobenzyl)-1-((tetrahydrofuran-2-yl)methyl)-1H-benzo[d]imidazole-6-carboxylic acid] | -9.12% |
|  | O=C(O)c1ccc2nc(Cc3ccc(-c4cccc(OCc5ccc(Cl)cc5F)n4)cc3F)n(C[C@@H]3CCO3)c2c1 [Example 78, (S)-2-(4-(6-(4-chloro-2-fluorobenzyloxy)pyridin-2-yl)-2-fluorobenzyl)-1-(oxetan-2-ylmethyl)-1H-benzo[d]imidazole-6-carboxylic acid] | -17.9% |
|  | O=C(O)c1ccc2nc(Cc3ccc(-c4cccc(OCc5ccc(Cl)cc5)n4)c(F)c3)n(CC3CCCO3)c2c1 (stereo not shown) [Example 94, 2-(4-(6-(4-chlorobenzyloxy)pyridin-2-yl)-3-fluorobenzyl)-1-((tetrahydrofuran-2-yl)methyl)-1H-benzo[d]imidazole-6-carboxylic acid] | 18.9% |
|  | O=C(O)c1ccc2nc(Cc3ccc(-c4cccc(OCC5CC5)n4)c(F)c3)n(C[C@@H]3CCO3)c2c1 [Example 135, (S)-2-(4-(6-(cyclopropylmethoxy)pyridin-2-yl)-3-fluorobenzyl)-1-(oxetan-2-ylmethyl)-1H-benzo[d]imidazole-6-carboxylic acid] | -14% |
|  | N#Cc1ccc(COc2cccc(-c3ccc(Cc4nc5ccc(C(=O)O)cc5n4C[C@@H]4CCO4)c(F)c3)n2)c(F)c1 [Example 73, (S)-2-(4-(6-(4-cyano-2-fluorobenzyloxy)pyridin-2-yl)-2-fluorobenzyl)-1-(oxetan-2-ylmethyl)-1H-benzo[d]imidazole-6-carboxylic acid] | -14.6% |
